{"source": "patent US20090179638A1", "about": "“ASSAY FOR IDENTIFYING INHIBITORS OF NEURONAL APOPTOTIC PATHWAYS” (AEGERA THERAPEUTICS INC., priority 2006, published 2009)", "key": {"[1]": {"tested_on": "HSP70", "experiment": "HSP70 levels in SCG neurons (immunoblot)", "format": "cell-based", "settings": "18 hours", "procedure": "To address this, SCG neurons were treated with compound 1 for 18 hours then lysed and assessed for HSP70 levels by immunoblot. Uninfected PC12rtTA cells were treated in a similar manner. […] To test if the accumulation of HSP70 induced by compound 1 reflected increased steady state levels of its mRNA, RNA was isolated from PC12 cells treated with increasing concentrations of compound 1 for 18 hours and the cell lysates subjected to semi-quantitative rtPCR. […] HSP protein levels were also assessed in PC12rtTA cells infected with AdLacZ, Adp75, or AdNRG, and at the same time, exposed to compound 1."}, "[2]": {"tested_on": "HSP70, HSP25, HSP90 mRNA", "experiment": "semi-quantitative rtPCR of HSP mRNA in PC12 cells", "format": "cell-based, rat", "settings": "18 hours", "procedure": "FIGS. 4A-4C are photographs of Western blots which illustrate that compound 1 treatment of PC12 cells induces expression of HSP70. A: PC12 cells were infected with 5 MOI of AdNRG (NRG) or AdLacZ (LacZ) as indicated. Cells were left untreated (0) or treated with 40 μM compound 1 at time of infection (30), one hour before lysis (1), or at both times (30+1). Cells were lysed thirty hours after infection, normalized for protein content, and analyzed for levels of phospho-Ser^63 c-Jun and total c-Jun, total JNK, IkBα, and NRAGE by immunoblotting. Lysates from untreated cells are indicated by ‘−’. B: PC12 cells were treated with the indicated concentrations of compound 1 for 18 hours and then lysed, normalized for protein content, and analyzed for levels of HSP70 by immunoblotting. Lysates from untreated cells are indicated by ‘−’. C: RNA isolated from PC12^rtTA cells treated with increasing concentrations of compound 1 for 18 hours was analyzed by rtPCR using primers specific to HSP70, HSP25, HSP90 or actin, as indicated. […] Thirty hours after infection, cells were lysed, normalized for protein content, and analyzed for levels of c-Jun phosphorylation, HSP70, HSP25, HSP40, NRAGE, p75NTR, JNK-1 and IkBα, as indicated.\nTo address this, SCG neurons were treated with compound 1 for 18 hours then lysed and assessed for HSP70 levels by immunoblot. […]"}, "[3]": {"tested_on": "HSP70 promoter", "experiment": "HSP70 promoter reporter transcriptional assay in MEFs (luciferase)", "format": "cell-based, mouse", "procedure": "(§1) FIGS. 5B and 5C are photographs of Western blots showing that compound 1 binds HSP90 and causes HSF1-dependent expression of HSP70 and HSP25. A: Wild-type or HSF1 null MEFs were transfected with pGL3B-HSP70, an HSP70 promoter reporter construct, or parental vector (pGL3B), then treated with 40 μM of compound 1 for 24 hours and analyzed for luciferase content as described in Materials and Methods (*=P<0.005 relative to 0 compound 1; **=P<0.005 relative to wild-type MEFs treated with 40 uM compound 1. B: Wild-type or HSF1 null MEFs were treated with increasing concentrations of compound 1 for 24 hours, cells were lysed, normalized for protein content, and analyzed for levels of HSP70, HSP40, and HSP25 as indicated. C: Compound 6-conjugated Sepharose beads were incubated with purified HSP90 for 2 hours, washed, and levels of bound HSP90 were analyzed by immunoblot. Con=Control beads, Alone=Compound 6-beads alone, Comp=[…]+competing compound 1 (at 80 μM). Experiments in Panel A-C were performed three times with identical results.\n(§2) Induction of cell stress results in the interaction of HSP90 with misfolded proteins and disrupts its association with HSF1, allowing it to bind and activate HSP70 and HSP25 promoters (Sanchez-Perez and Perona, 1999). […]"}, "[4]": {"tested_on": "HSP70 and HSP25", "experiment": "Endogenous HSP protein expression in wild-type or HSF1 null MEFs (immunoblot)", "format": "cell-based, mouse", "procedure": "as §1, §2"}, "[5]": {"tested_on": "HSP70 promoter", "experiment": "HSP70 transcriptional reporter constructs in PC12 cells", "format": "cell-based", "settings": "transfected PC12 cells"}, "[6]": {"tested_on": "HSP90", "experiment": "Compound 6-bead pulldown of purified HSP90", "format": "binding", "settings": "competing compound at 80 μM", "procedure": "as §1\nCompound 6 was coupled with Affi-Gel 10 beads (BioRad) and used as an affinity reagent in pulldown experiments. Beads were incubated either with whole cell lysates or with purified HSP90, washed extensively, and bound proteins were then eluted and analyzed by SDS-PAGE and immunoblotting. […]"}, "[7]": {"tested_on": "HSP90", "experiment": "ATP-Sepharose interaction assay", "format": "binding", "settings": "purified HSP90 pre-incubated with substance", "procedure": "Bound HSP90 was eluted HSP90 content was determined by immunoblotting.\nATP-Sepharose Interaction Assays. These were performed essentially as described in (Grenert et al., 1997). […] 25 ul of ATP-sepharose beads were added and the reactions were incubated for 30 min at 30° C. After thorough washing with ice-cold incubation buffer, bound proteins were eluted in sample buffer and HSP90 content was determined by immunoblotting."}, "[8]": {"tested_on": "Akt", "experiment": "Akt levels in PC12 cells (immunoblot)", "format": "cell-based", "settings": "16 hours"}}, "data": [{"smiles": "NS(=O)(=O)c1nn2cc(-c3ccccc3)nc2s1", "note": "[Compound 1]", "values": [{"measurement": "cellular HSP70 levels", "setting": "[1]", "value": "large increase"}, {"measurement": "HSP25 and HSP70 mRNA levels", "setting": "[2]", "value": "increased levels"}, {"measurement": "HSP90 or actin mRNA levels", "setting": "[2]", "value": "no effect"}, {"measurement": "transcriptional activity of the HSP70 promoter reporter construct", "setting": "[3]; MEFs lacking HSF1, 40 μM", "value": "remained at baseline"}, {"measurement": "transcriptional activity of the HSP70 promoter reporter construct", "setting": "[3]; wild-type MEFs, 40 μM", "value": "strongly induced"}, {"measurement": "expression of endogenous HSP70 and HSP25", "setting": "[4]; MEFs lacking HSF1, 24 hours", "value": "not in MEFs lacking HSF1"}, {"measurement": "expression of endogenous HSP70 and HSP25", "setting": "[4]; wild type MEFs, 24 hours", "value": "strong induction"}, {"measurement": "activity of HSP70 transcriptional reporter constructs", "setting": "[5]", "value": "stimulated"}, {"measurement": "effect of excess unbound compound on compound 6-bead:HSP90 interaction", "setting": "[6]", "value": "strongly attenuated"}, {"measurement": "binding of HSP90 to gATP-Sepharose", "setting": "[7]", "value": "does not decrease the amount of HSP90 bound to gATP-Sepharose but rather increased their association"}, {"measurement": "phosphorylated Akt (pAkt) levels", "setting": "[8]", "value": "significantly enhanced"}, {"measurement": "total Akt levels", "setting": "[8]", "value": "reduced total Akt only slightly"}]}]}
